PubChem BioAssay AID256 (DTP/NCI, 2004)
“And” between values parts separate entries of the source, which are not always exact repeats. Equal entries are not always repeated. Inconclusive results and toxic doses are left out. Rule for the calls: active = survival T/C of 150% or more; inactive = T/C below 125% in these data.

System: CD2F1 mice, L1210 leukemia ip, survival T/C
Assay: NCI In Vivo Anticancer Drug Screen. Data for tumor model L1210 Leukemia (intraperitoneal) in CD2F1 (CDF1) mice
Details: higher = longer survival
Outline: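 Implant tumor; dose compound or vehicle; measure endpoint in both groups; report treated divided by control.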

[1] = endpoint: mean survival time, dose: 50.0 mg/kg/injection, schedule: Q01DX009 (ip), vehicle: saline with Tween-80
[2] = endpoint: mean survival time, dose: 100.0 mg/kg/injection, schedule: Q01DX009 (ip), vehicle: saline
[3] = endpoint: mean survival time, dose: 200.0 mg/kg/injection, schedule: Q01DX009 (ip), vehicle: saline
[4] = endpoint: mean survival time, dose: 100.0 mg/kg/injection, schedule: Q04DX003 (ip), vehicle: saline with Tween-80
[5] = endpoint: mean survival time, dose: 100.0 mg/kg/injection, schedule: Q01DX001 (ip), vehicle: saline with Tween-80
[6] = endpoint: mean survival time, dose: 200.0 mg/kg/injection, schedule: Q01DX001 (ip), vehicle: saline with Tween-80
[7] = endpoint: mean survival time, dose: 400.0 mg/kg/injection, schedule: Q01DX001 (ip), vehicle: saline with Tween-80
[8] = endpoint: mean survival time, dose: 100.0 mg/kg/injection, schedule: Q01DX009 (ip), vehicle: saline with Tween-80
[9] = endpoint: mean survival time, dose: 200.0 mg/kg/injection, schedule: Q01DX009 (ip), vehicle: saline with Tween-80
[10] = endpoint: mean survival time, dose: 200.0 mg/kg/injection, schedule: Q04DX003 (ip), vehicle: saline with Tween-80
[11] = endpoint: mean survival time, dose: 400.0 mg/kg/injection, schedule: Q01DX009 (ip), vehicle: saline with Tween-80

Measured: T/C

COc1cc[c-]cc1.[C-]#[O+].[C-]#[O+].[Fe+6].[c-]1[c-][c-][cH-][c-]1
inactive: endpoint: mean survival time, dose: 50.0 mg/kg/injection, schedule: Q04DX002 (ip), vehicle: saline with Tween-80 102 % of control | endpoint: mean survival time, dose: 100.0 mg/kg/injection, schedule: Q04DX002 (ip), vehicle: saline with Tween-80 102 % of control | endpoint: mean survival time, dose: 200.0 mg/kg/injection, schedule: Q04DX002 (ip), vehicle: saline with Tween-80 97 % of control

C=CC(=O)NCNC(=O)C=C
inactive: endpoint: mean survival time, dose: 6.25 mg/kg/injection, schedule: Q01DX009 (ip), vehicle: saline 97 % of control | endpoint: mean survival time, dose: 12.5 mg/kg/injection, schedule: Q01DX009 (ip), vehicle: saline 101 % of control and 102 % of control | endpoint: mean survival time, dose: 25.0 mg/kg/injection, schedule: Q01DX009 (ip), vehicle: saline with Tween-80 117 % of control | endpoint: mean survival time, dose: 25.0 mg/kg/injection, schedule: Q01DX009 (ip), vehicle: saline 97 % of control and 102 % of control | [1] 114 % of control | endpoint: mean survival time, dose: 50.0 mg/kg/injection, schedule: Q01DX009 (ip), vehicle: saline 117 % of control and 104 % of control | [2] 117 % of control and 98 % of control | [3] 96 % of control

CC(=N\N)/C(C)=N/N
inactive: [4] 105 % of control

CC(=O)Nc1ccc2c(c1)CCC2=O
inactive: [5] 91 % of control | [6] 95 % of control | [7] 98 % of control

Cc1ccc2cc3c(cc2c1C)sc1ccccc13
inactive: endpoint: mean survival time, dose: 8.8 mg/kg/injection, schedule: Q04DX003 (ip), vehicle: other 108 % of control | endpoint: mean survival time, dose: 17.5 mg/kg/injection, schedule: Q04DX003 (ip), vehicle: other 115 % of control | endpoint: mean survival time, dose: 35.0 mg/kg/injection, schedule: Q04DX003 (ip), vehicle: other 108 % of control | endpoint: mean survival time, dose: 70.0 mg/kg/injection, schedule: Q04DX003 (ip), vehicle: other 97 % of control | endpoint: mean survival time, dose: 140.0 mg/kg/injection, schedule: Q04DX003 (ip), vehicle: other 93 % of control

O=[N+]([O-])c1ccc(S(=O)(=O)c2ccc([N+](=O)[O-])cc2)cc1
inactive: [1] 93 % of control | [8] 93 % of control | [9] 93 % of control

NC(=O)N/N=C1\CC2C=CCC12 (stereo not given)
inactive: [8] 95 % of control | [9] 98 % of control

COc1ccc2c(c1)c(C#N)cc[n+]2C
inactive: endpoint: mean survival time, dose: 6.25 mg/kg/injection, schedule: Q01DX009 (ip), vehicle: saline with Tween-80 100 % of control | endpoint: mean survival time, dose: 12.5 mg/kg/injection, schedule: Q01DX009 (ip), vehicle: saline with Tween-80 110 % of control | endpoint: mean survival time, dose: 12.5 mg/kg/injection, schedule: Q04DX003 (ip), vehicle: saline with Tween-80 100 % of control | endpoint: mean survival time, dose: 25.0 mg/kg/injection, schedule: Q04DX003 (ip), vehicle: saline with Tween-80 91 % of control

Cc1ccc(S(=O)(=O)/N=S(\C)c2ccc(Cl)cc2)cc1 (stereo not given)
inactive: [4] 97 % of control | [10] 108 % of control | endpoint: mean survival time, dose: 400.0 mg/kg/injection, schedule: Q04DX003 (ip), vehicle: saline with Tween-80 90 % of control

C[C@@]12C(=O)OC(=O)[C@]1(C)[C@H]1CC[C@@H]2O1
inactive: endpoint: median survival time, dose: 0.06 mg/kg/injection, schedule: Q01DX009 (ip), vehicle: Klucel (hydroxypropylcellulose) (HPC) 110 % of control | endpoint: median survival time, dose: 0.12 mg/kg/injection, schedule: Q01DX009 (ip), vehicle: Klucel (hydroxypropylcellulose) (HPC) 102 % of control | endpoint: median survival time, dose: 0.25 mg/kg/injection, schedule: Q01DX009 (ip), vehicle: Klucel (hydroxypropylcellulose) (HPC) 103 % of control | endpoint: median survival time, dose: 0.5 mg/kg/injection, schedule: Q01DX009 (ip), vehicle: Klucel (hydroxypropylcellulose) (HPC) 104 % of control | endpoint: median survival time, dose: 1.0 mg/kg/injection, schedule: Q01DX009 (ip), vehicle: Klucel (hydroxypropylcellulose) (HPC) 92 % of control

CCCCCCCCCCCCCCCCCCCOc1ccc(OCCCCCCCCCC)cc1
inactive: [5] 95 % of control | [6] 86 % of control | [7] 86 % of control

O=C(/C=C(\C(=O)c1ccccc1)c1ccccc1)c1ccccc1
inactive: [1] 95 % of control | endpoint: mean survival time, dose: 50.0 mg/kg/injection, schedule: Q04DX003 (ip), vehicle: saline with Tween-80 92 % of control | [8] 96 % of control | [4] 87 % of control | [9] 101 % of control | [10] 87 % of control

C/C(CCC(=O)O)=N\NC(N)=O
inactive: [8] 97 % of control | [4] 95 % of control | [9] 97 % of control | [10] 90 % of control | [11] 93 % of control

CC1(CC(C)(C)c2ccccc2)OCCO1
inactive: endpoint: mean survival time, dose: 25.0 mg/kg/injection, schedule: Q01DX009 (ip), vehicle: Klucel (hydroxypropylcellulose) (HPC) 100 % of control | endpoint: mean survival time, dose: 50.0 mg/kg/injection, schedule: Q01DX009 (ip), vehicle: Klucel (hydroxypropylcellulose) (HPC) 98 % of control | endpoint: mean survival time, dose: 100.0 mg/kg/injection, schedule: Q01DX009 (ip), vehicle: Klucel (hydroxypropylcellulose) (HPC) 100 % of control | endpoint: mean survival time, dose: 200.0 mg/kg/injection, schedule: Q01DX009 (ip), vehicle: Klucel (hydroxypropylcellulose) (HPC) 102 % of control | endpoint: mean survival time, dose: 400.0 mg/kg/injection, schedule: Q01DX009 (ip), vehicle: Klucel (hydroxypropylcellulose) (HPC) 100 % of control

Nc1nc(-c2cccc([N+](=O)[O-])c2)c(N=Nc2ccc([N+](=O)[O-])cc2)s1
inactive: [5] 93 % of control | [6] 95 % of control

O=C1C=CC(=O)C(Br)C1Br (stereo not given)
inactive: endpoint: mean survival time, dose: 37.5 mg/kg/injection, schedule: Q01DX009 (ip), vehicle: saline 93 % of control | endpoint: mean survival time, dose: 37.5 mg/kg/injection, schedule: Q04DX003 (ip), vehicle: saline 95 % of control | endpoint: mean survival time, dose: 75.0 mg/kg/injection, schedule: Q01DX001 (ip), vehicle: saline 97 % of control | endpoint: mean survival time, dose: 75.0 mg/kg/injection, schedule: Q01DX009 (ip), vehicle: saline 93 % of control | endpoint: mean survival time, dose: 75.0 mg/kg/injection, schedule: Q04DX003 (ip), vehicle: saline 103 % of control | endpoint: mean survival time, dose: 150.0 mg/kg/injection, schedule: Q01DX001 (ip), vehicle: saline 101 % of control | endpoint: mean survival time, dose: 150.0 mg/kg/injection, schedule: Q01DX009 (ip), vehicle: saline 94 % of control | endpoint: mean survival time, dose: 150.0 mg/kg/injection, schedule: Q04DX003 (ip), vehicle: saline 93 % of control

Cc1c(N=Nc2ccc(N(C)C)cc2)cc[n+]([O-])c1C
inactive: [4] 102 % of control | [10] 110 % of control

O=C(COc1ccc(S[N+](=O)[O-])cc1)c1ccccc1
inactive: endpoint: mean survival time, dose: 100.0 mg/kg/injection, schedule: Q01DX001 (ip), vehicle: saline 105 % of control | endpoint: mean survival time, dose: 200.0 mg/kg/injection, schedule: Q01DX001 (ip), vehicle: saline 103 % of control | endpoint: mean survival time, dose: 400.0 mg/kg/injection, schedule: Q01DX001 (ip), vehicle: saline 94 % of control

CC(=O)SCC(C)CCl (stereo not given)
inactive: [2] 101 % of control | [3] 98 % of control | endpoint: mean survival time, dose: 400.0 mg/kg/injection, schedule: Q01DX009 (ip), vehicle: saline 104 % of control

Nc1ccn(CCC(COCc2ccccc2)COCc2ccccc2)c(=O)n1
inactive: endpoint: mean survival time, dose: 100.0 mg/kg/injection, schedule: Q04DX003 (ip), vehicle: Klucel (hydroxypropylcellulose) (HPC) 100 % of control | endpoint: mean survival time, dose: 200.0 mg/kg/injection, schedule: Q04DX003 (ip), vehicle: Klucel (hydroxypropylcellulose) (HPC) 96 % of control | endpoint: mean survival time, dose: 400.0 mg/kg/injection, schedule: Q04DX003 (ip), vehicle: Klucel (hydroxypropylcellulose) (HPC) 96 % of control

CCCCCCCCN(C#N)CCCCCCCC
inactive: [8] 100 % of control | [9] 95 % of control | [11] 97 % of control
